Experimental findings from patent publication US20070129344A1, “Bicyclic 6-alkylidene-penem beta-lactamase inhibitors and beta-lactam antibiotic combination: a broad spectrum antibiotic” (priority 2005, published 2007) are described below.

In assay [1] the test system is A. baumannii GC 7685 TEM-1. The assay can be described thus: MIC microbroth dilution; β-lactamase class A. The class given is cell-based. As for the experimental part: (§1) The in vitro activities of the antibiotics were determined by the microbroth dilution method as recommended by the National Committee for Clinical Laboratory Standards (NCCLS). (NCCLS. 2000. Methods for Dilution Antimicrobial Susceptibility Tests for Bacteria That Grow Aerobically; Approved Standards: M7-A5, vol. 19. National Committee for Clinical Laboratory Standards, Villanova, Pa.). Mueller-Hinton II broth (MHBII)(BBL Cockeysville, Md.), was used for the testing procedure. […]. The plates were incubated for 18-22 hours at 35° C. in ambient air.
A general note: Broth dilution looks for growth in wells or tubes with falling amounts of substance.

Assay [2] concerns E. coli ATCC 35218 TEM-1. The assay can be described thus: MIC microbroth dilution; β-lactamase class A. The assay is classed as cell-based. As for the experimental part:
as §1

In assay [3] the test system is E. coli GC 2009 (TEM-10). The assay can be described thus: MIC microbroth dilution; β-lactamase class A (ESBL). The class given is cell-based. As for the experimental part:
as §1

Assay [4] has as its system S. typhimurium GC 4198 SHV-1 CTX-M-5. The assay can be described thus: MIC microbroth dilution; β-lactamase class A, A (ESBL). The assay is classed as cell-based. As for the experimental part:
as §1

The subject of assay [5] is E. coli GC 2253 (IRT-2). The assay is described as follows: MIC microbroth dilution; β-lactamase class A (IRT). The assay is classed as cell-based. As for the experimental part:
as §1

Assay [6] concerns K. oxytoca GC 7627 TEM-1 K1 KPC-2. The assay can be described thus: MIC microbroth dilution; β-lactamase class A, A (Cb'ase). The assay is classed as cell-based. As for the experimental part:
as §1

Assay [7] deals with K. pneumoniae GC 7645 TEM-30 TEM-1 KPC-2 SHV-12. The assay can be described thus: MIC microbroth dilution; β-lactamase class A, A (Cb'ase), A (ESBL), A(IRT). The class given is cell-based. As for the experimental part: as §1
The test system of assay [8] is E. coli GC 2805 (CcrA). The assay can be described thus: MIC microbroth dilution; β-lactamase class B. The assay is classed as cell-based. As for the experimental part:
as §1

The test system of assay [9] is P. aeruginosa PT 9025 PTZ-R. The assay can be described thus: MIC microbroth dilution. The class given is cell-based. As for the experimental part:
as §1

Assay [10] deals with A. baumannii GC 7692 TEM-1, AmpC. The assay is described as follows: MIC microbroth dilution; β-lactamase class A, C. The class given is cell-based. As for the experimental part:
as §1

For assay [11], the system named is E. coli GC 2295 TEM-1 + AmpC. The assay is described as follows: MIC microbroth dilution; β-lactamase class A, C. The class given is cell-based. As for the experimental part: as §1
The test system of assay [12] is E. coli GC 2883 (OXA-10/PSE-2). The assay can be described thus: MIC microbroth dilution; β-lactamase class D. The class given is cell-based. As for the experimental part:
as §1

For assay [13], the system named is A. baumannii PT 9444 PTZ-R. The assay can be described thus: MIC microbroth dilution; β-lactamase class not determined. The class given is cell-based. As for the experimental part:
as §1

The target in assay [14] is class A β-lactamase Imi-1 (Enterobacter cloacae, UniProt Q46991). The assay is described as follows: β-Lactamase inhibition IC50 (nitrocefin, spectrophotometric). The class given is biochemical. As for the experimental part:
(§2) β-Lactamase inhibitory activity of the penem inhibitors was determined spectrophotometrically as described by Bush et al., [Bush, K., Macalintal, C., Rasmussen, B. A., Lee, V. and Yang, Y. Antimicrobial Agents and Chemotherapy 1993, 37, 851]. Homogeneously purified class A β-lactamases TEM-1 from E. coli and Imi-1 from Enterobacter cloacae, class B enzyme CcrA from Bacteroides fragilis and class C enzyme AmpC from Enterobacter cloacae were employed in the assay. The enzyme concentrations for TEM-1, Imi-1, CcrA and AmpC were 4.3, 7.1, 1.2 and 2.1 nM, respectively. A wide range of inhibitor concentrations were prepared in 50 mM PO4, pH 7.0 to include the possible IC50 values. The substrate used to initiate the enzyme reaction was nitrocefin at 50 μg/ml in the same buffer as the inhibitor. Initially the enzyme and inhibitor (20 μl each) were preincubated for 10 minutes at 25° C. prior to the addition of 160 μl volume of nitrocefin. Initial rates of hydrolysis were monitored for 5 minutes at 495 nm using a Molecular Devices Spectra Max 250 with kinetic protocol of SoftMax Program. Readings from the Spectra Max 250 were exported and transferred to Microsoft Excel. The percent of inhibition of each inhibitor concentration was calculated based on the control enzyme activity. The inhibitor concentration that caused a 50% reduction in the enzymatic activity (IC50) was determined graphically.

The target of assay [15] is class B enzyme CcrA (Bacteroides fragilis, UniProt P25910). Described as above. The class given is biochemical. The note with it: enzyme 1.2 nM, 10 min preincubation at 25° C., read-out: IC50 Class B Ccr. As for the experimental part: as §2
Assay [16] deals with class C enzyme AmpC (Enterobacter cloacae, UniProt P05364). Described as above. The assay is classed as biochemical. As for the experimental part:
as §2

Assay [17] relates to E. coli GC 2021 (TEM-10 + pl 6.3). The assay is described as follows: MIC microbroth dilution; β-lactamase class A (ESBL). The note with it: Cefepime + 4 ug/ml Compound 1. The assay is classed as cell-based. As for the experimental part: as §1
Assay [18] relates to K. pn GC 1827 (TEM-3). The description is as above. The assay is classed as cell-based, K. pneumoniae. The note with it: Cefepime + 4 ug/ml Compound 1. As for the experimental part: as §1
For assay [19], the system named is E. coli GC 2905 (P99). The assay can be described thus: MIC microbroth dilution; β-lactamase class C. The assay is classed as cell-based. The note with it: Cefepime + 4 ug/ml Compound 1. Summed up: (§3)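 MICs came from the NCCLS-recommended microbroth dilution method, with Mueller-Hinton II broth as the medium. Incubation: 35° C., ambient air, 18-22 hours.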
Assay [20] deals with P. aeruginosa GC 1764 AmpC-constitutive. The assay can be described thus: MIC microbroth dilution; β-lactamase class C. The class given is cell-based. As to conditions: Cefepime + 4 ug/ml Compound 1. An outline of the steps:
as §3

In assay [21] the test system is S. marcescens GC 4150 Stably derepressed AmpC. The assay can be described thus: MIC microbroth dilution; β-lactamase class C. The assay is classed as cell-based. As to conditions: Cefepime + 4 ug/ml Compound 1. Summed up: as §3
Assay [22] has as its system S. marcescens PT 488 Stably derepressed AmpC. The assay is described as follows: MIC microbroth dilution; β-lactamase class C. The assay is classed as cell-based. The note with it: Cefepime + 4 ug/ml Compound 1. An outline of the steps:
as §3

The test system of assay [23] is S. marcescens PT 6003 Stably derepressed AmpC. The assay can be described thus: MIC microbroth dilution; β-lactamase class C. The class given is cell-based. As to conditions: Cefepime + 4 ug/ml Compound 1. An outline of the steps:
as §3

Converted amounts (≈) assume the structure as drawn. Structures can show the parent of a compound that is named as a salt. Where two headings read alike, the source gives them in different places.

class A β-lactamase Imi-1, sequence (Q46991 entry or part of it): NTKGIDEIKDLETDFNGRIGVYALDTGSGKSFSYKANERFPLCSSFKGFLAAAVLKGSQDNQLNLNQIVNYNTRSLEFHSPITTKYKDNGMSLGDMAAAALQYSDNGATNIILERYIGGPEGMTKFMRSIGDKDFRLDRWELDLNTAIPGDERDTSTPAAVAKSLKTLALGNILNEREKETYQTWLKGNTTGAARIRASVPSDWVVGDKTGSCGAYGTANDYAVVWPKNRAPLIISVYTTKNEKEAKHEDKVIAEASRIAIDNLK
class C enzyme AmpC, sequence (P05364 21-381): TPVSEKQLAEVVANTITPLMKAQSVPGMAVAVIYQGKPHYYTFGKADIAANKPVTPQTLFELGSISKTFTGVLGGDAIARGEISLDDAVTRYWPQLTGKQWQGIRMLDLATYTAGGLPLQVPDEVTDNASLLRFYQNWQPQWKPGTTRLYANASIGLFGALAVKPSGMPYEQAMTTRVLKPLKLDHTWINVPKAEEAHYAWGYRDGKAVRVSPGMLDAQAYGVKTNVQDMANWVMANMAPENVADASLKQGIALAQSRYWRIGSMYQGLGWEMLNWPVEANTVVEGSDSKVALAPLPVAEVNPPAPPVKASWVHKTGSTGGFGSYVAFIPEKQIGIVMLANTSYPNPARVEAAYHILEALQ
class B enzyme CcrA, sequence (P25910 19-249): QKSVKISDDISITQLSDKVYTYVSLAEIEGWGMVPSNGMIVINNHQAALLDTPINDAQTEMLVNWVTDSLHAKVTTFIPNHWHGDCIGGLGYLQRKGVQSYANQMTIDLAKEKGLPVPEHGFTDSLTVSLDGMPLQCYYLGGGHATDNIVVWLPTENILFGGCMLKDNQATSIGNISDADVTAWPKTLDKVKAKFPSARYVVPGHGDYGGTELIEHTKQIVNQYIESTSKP

As a reminder, the MIC is the lowest concentration found to suppress growth. Consider `CO/N=C(\C(=O)N[C@@H]1C(=O)N2C(C(=O)[O-])=C(C[N+]3(C)CCCC3)CS[C@H]12)c1csc(N)n1` [Cefepime, reference compound], for which the MIC was greater than 16 µg/mL in [1] (A. baumannii GC 7685, Cefepime alone, control of Compound 2 test); greater than 16 µg/mL in assay [1] (Acinetobacter baumannii, GC7685TEM1); 0.03 µg/mL (≈ 0.0624 µM) in [2] (E. coli ATCC 35218, Cefepime alone, control of Compound 2 test); 0.03 µg/mL (≈ 0.0624 µM) in assay [2] (Escherichia coli, ATCC35218); greater than 16 µg/mL in assay [3] (E. coli GC 2009, Cefepime alone, control of Compound 2 test); greater than 16 µg/mL in assay [3] (Escherichia coli). Also, the minimal inhibitory concentration (MIC) in assay [4] (S. typhimurium GC 4198, Cefepime alone, control of Compound 2 test) is greater than 16 µg/mL; in [4] (Salmonella enterica, TYPHIMURIUM), greater than 16 µg/mL; in [5] (Escherichia coli, Cefepime alone, control of Compound 1 test), 0.03 µg/mL (≈ 0.0624 µM); in assay [6] (K. oxytoca GC 7627, Cefepime alone, control of Compound 2 test) it was greater than 16 µg/mL; in [6] (Klebsiella oxytoca), greater than 16 µg/mL; in assay [7] (K. pneumoniae GC 7645, Cefepime alone, control of Compound 2 test), greater than 16 µg/mL. For the same molecule, the minimum inhibitory concentration (MIC) is greater than 16 µg/mL in assay [7] (Klebsiella pneumoniae); greater than 16 µg/mL in assay [8] (E. coli GC 2805, Cefepime alone, control of Compound 2 test); greater than 16 µg/mL in assay [8] (Escherichia coli); greater than 16 µg/mL in assay [9] (P. aeruginosa PT 9025, Cefepime alone, control of Compound 2 test); greater than 16 µg/mL in assay [9] (Pseudomonas aeruginosa, PT9025PTZR); greater than 16 µg/mL in [10] (A. baumannii GC 7692, Cefepime alone, control of Compound 2 test). Further, the MIC in assay [10] (Acinetobacter baumannii) is greater than 16 µg/mL; in assay [11] (E. coli GC 2295, Cefepime alone, control of Compound 2 test) it was 0.50 µg/mL (≈ 1.04 µM); in [11] (Escherichia coli), 0.5 µg/mL (≈ 1.04 µM); in [12] (Cefepime alone, control of Compound 2 test), 0.06 µg/mL (≈ 0.125 µM); in [13] (A. baumannii PT 9444, Cefepime alone, control of Compound 2 test), greater than 16 µg/mL; in assay [13] (Acinetobacter baumannii, PT9444PTZR), greater than 16 µg/mL.
Broadly, the IC50 is the concentration needed to halve the response being measured. In the case of `O=C(O)C1=CS[C@@H]2/C(=C\c3cn4c(n3)COCC4)C(=O)N12` [Compound 2, (5R), (6Z)-6-(5,6-Dihydro-8H-imidazo[2.1-c][1,4]oxazin-2-ylmethylene)-7-oxo-4-thia-1-azabicyclo[3.2.0]hept-2-ene-2-carboxylic Acid, Sodium Salt], the 50% inhibitory concentration (IC50) came out at 0.02 µM in assay [14], 0.23 µM in [15] and 0.0022 µM in assay [16].
For `O=C([O-])C1=CS[C@@H]2/C(=C\c3cn4c(n3)CCC4)C(=O)N12.[Na+]` [Compound 1, (5R), (6Z)-6-(6,7-Dihydro-5H-pyrrolo[1,2-a]imidazol-2-ylmethylene)-7-oxo-4-thia-1-aza-bicyclo[3.2.0]hept-2-ene-2-carboxylic Acid, Sodium Salt], the IC50 stood at 0.0078 µM in assay [14] (enzyme 7.1 nM, 10 min preincubation at 25° C., nitrocefin, read-out: IC50 Class A Imi); 0.066 µM in [15]; 0.0048 µM in assay [16] (enzyme 2.1 nM, 10 min preincubation at 25° C., nitrocefin, read-out: IC50 Class C AmpC). The MIC is 16 µg/mL in assay [1] (A. baumannii GC 7685, Cefepime + 4 ug/ml Compound 1); 0.03 µg/mL in assay [2] (E. coli ATCC 35218, Cefepime + 4 ug/ml Compound 1); 0.12 µg/mL in assay [3] (E. coli GC 2009, Cefepime + 4 ug/ml Compound 1); 0.12 µg/mL in assay [17]; 0.03 µg/mL in assay [18]; 0.50 µg/mL in assay [4] (S. typhimurium GC 4198, Cefepime + 4 ug/ml Compound 1). Besides, the MIC in [5] (Cefepime + 4 ug/ml Compound 1) is 0.03 µg/mL; in assay [6] (K. oxytoca GC 7627, Cefepime + 4 ug/ml Compound 1), 2 µg/mL; in assay [7] (K. pneumoniae GC 7645, Cefepime + 4 ug/ml Compound 1), greater than 16 µg/mL; in [8] (E. coli GC 2805, Cefepime + 4 ug/ml Compound 1) it was greater than 16 µg/mL; in [19], 0.06 µg/mL; in [20], 0.50 µg/mL. In addition, the MIC in [21] is 0.25 µg/mL; in assay [22], 0.06 µg/mL; in [23], 0.25 µg/mL; in assay [9] (P. aeruginosa PT 9025, Cefepime + 4 ug/ml Compound 1) it was 16 µg/mL; in assay [10] (A. baumannii GC 7692, Cefepime + 4 ug/ml Compound 1), greater than 16 µg/mL; in assay [11] (E. coli GC 2295, Cefepime + 4 ug/ml Compound 1), 0.12 µg/mL. The MIC in assay [12] (Cefepime + 4 ug/ml Compound 1) came to 0.06 µg/mL; in [13] (A. baumannii PT 9444, Cefepime + 4 ug/ml Compound 1), 16 µg/mL.
